#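 Compound exposure: 48 hours, 5 concentrations, 96-well plates. GI50 = concentration required for 50% inhibition of growth. TGI: total growth inhibition.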 Where a SMILES comes first, the peptide text is derived from it. [ ]: non-standard residue; d: D form. pGlu = O=C1CC[CH](C(=O)O)N1
# Columns and labels:
# Assay in all cases: DTP human tumour cell line panel, 48 h
# [1] = system: EKVX NSCLC
# [2] = system: COLO 205 colon
# [3] = system: RXF 393 renal
# [4] = system: TK-10 renal
# [5] = system: HCT-15 colon
# [6] = system: SW-620 colon
# [7] = system: SK-MEL-5 melanoma
# [8] = system: MOLT-4 leukemia
# [9] = system: OVCAR-5 ovarian
# [10] = system: OVCAR-8 ovarian
SMILES,GI50 [1],TGI [1],GI50 [2],TGI [2],GI50 [3],TGI [3],GI50 [4],TGI [4],GI50 [5],TGI [5],GI50 [6],TGI [6],GI50 [7],TGI [7],GI50 [8],TGI [8],GI50 [9],TGI [9],GI50 [10],TGI [10]
C/C=C(\C)C(=O)NC1=CC[C@@]2(C)C(=CCC3C2CC[C@@]2(C)C3CC[C@@H]2C(C)N(C)C)C1=O (some centres not stated),3.17 µM,51.8 µM,1.72 µM,3.45 µM,1.56 µM,4.53 µM,12.3 µM,32.4 µM,1.54 µM,4.65 µM,2.02 µM,4.91 µM,1.39 µM,2.95 µM,0.843 µM,6.43 µM,4.78 µM,25.4 µM,10.1 µM,> 77.9 µM
C[C@@]1(C(=O)O)CCC[C@]2(C)C1CC[C@@]13CC(=O)[C@@](CO)(CC[C@]12O)C3 (some centres not stated),> 100 µM,> 100 µM,6.16 µM,> 100 µM,> 100 µM,> 100 µM,> 100 µM,> 100 µM,> 100 µM,> 100 µM,> 100 µM,> 100 µM,> 100 µM,> 100 µM,> 100 µM,> 100 µM,> 100 µM,> 100 µM,> 100 µM,> 100 µM
CSC(=Nc1nnc(-c2ccc([N+](=O)[O-])cc2)s1)SC,,> 100 µM,,> 100 µM,,45.4 µM,,44.8 µM,,> 100 µM,,> 100 µM,,> 100 µM,,> 100 µM,,> 100 µM,,> 100 µM
CN(O)C(=O)SCC(NC(=O)CCC(N)C(=O)O)C(=O)NCC(=O)O (configuration not stated),> 2000 µM,> 2000 µM,> 2000 µM,> 2000 µM,> 2000 µM,> 2000 µM,> 2000 µM,> 2000 µM,> 2000 µM,,,> 2000 µM,> 2000 µM,> 2000 µM,> 2 µM,> 2000 µM,,> 2 µM,> 2000 µM,> 2000 µM
CCCCON(OC(=O)c1ccc2ccccc2c1)C(=O)c1ccccc1,> 100 µM,> 100 µM,> 100 µM,> 100 µM,> 100 µM,> 100 µM,> 100 µM,> 100 µM,> 100 µM,> 100 µM,36.3 µM,> 100 µM,> 100 µM,> 100 µM,29.2 µM,68.4 µM,> 100 µM,> 100 µM,> 100 µM,> 100 µM
COC1=C(N)C(=O)c2nc(C)ccc2C1=O,,6.85 µM,,3.23 µM,,3.08 µM,,16.4 µM,,3.49 µM,,3.36 µM,,3.09 µM,,> 52.9 µM,,3.43 µM,,12.4 µM
O=C(CCCCCCNC(=O)c1cnc(N(c2ccccc2)c2ccccc2)nc1)NO,4.95 µM,> 100 µM,1.79 µM,4.1 µM,0.796 µM,3.85 µM,2.07 µM,12.5 µM,18.4 µM,> 100 µM,1.94 µM,> 29.7 µM,1.82 µM,5.48 µM,2.13 µM,> 100 µM,3.14 µM,26.1 µM,2.25 µM,> 100 µM
COc1cccc(N2CCN(CC(=O)N3CCN(c4nnc(-c5ccc(Cl)cc5)c(-c5ccc(Cl)cc5)n4)CC3)CC2)c1,12.3 µM,93.7 µM,22.2 µM,> 100 µM,28.7 µM,> 100 µM,17.3 µM,85.9 µM,8.35 µM,> 100 µM,64.9 µM,> 100 µM,8.55 µM,> 100 µM,3.1 µM,> 100 µM,> 100 µM,> 100 µM,29.4 µM,> 100 µM
CC1(C)O[C@H]2[C@H](O)C[C@](O)(CO)C[C@H]2O1,,> 100 µM,,> 100 µM,,> 100 µM,,> 100 µM,,> 100 µM,,> 100 µM,,> 100 µM,,> 100 µM,,> 100 µM,,> 100 µM
O=c1[nH]c(=O)c2cn[nH]c2[nH]1,> 100 µM,> 100 µM,> 100 µM,> 100 µM,> 100 µM,> 100 µM,> 100 µM,> 100 µM,> 100 µM,> 100 µM,> 100 µM,> 100 µM,> 100 µM,> 100 µM,> 100 µM,> 100 µM,> 100 µM,> 100 µM,> 100 µM,> 100 µM
O=[N+]([O-])c1ccc(C[P+](c2ccccc2)(c2ccccc2)c2ccccc2)cc1,,> 100 µM,,> 100 µM,,> 100 µM,,> 100 µM,,> 100 µM,,> 100 µM,,> 100 µM,,> 100 µM,,> 100 µM,,> 100 µM
CCN(Cc1cc(Nc2nc(C)cn3c(-c4cn[nH]c4)cnc23)sn1)C(C)(C)CO,0.578 µM,15.2 µM,< 0.01 µM,0.132 µM,< 0.012 µM,0.0907 µM,0.0507 µM,2.24 µM,0.0746 µM,11.4 µM,< 0.0107 µM,5.08 µM,0.222 µM,2.08 µM,0.0465 µM,12.4 µM,0.0676 µM,10.7 µM,0.0411 µM,11 µM
COc1cc(/C=C\c2cc(OC)c(OC)c(OC)c2)cc(NC(=O)/C=C/c2cc(OC)c(OC)c(OC)c2)c1OC,15.7 µM,> 100 µM,4.2 µM,> 100 µM,4.77 µM,> 100 µM,6.72 µM,> 100 µM,5.51 µM,> 100 µM,5.89 µM,> 100 µM,1.66 µM,3.97 µM,3.15 µM,> 100 µM,> 100 µM,> 100 µM,6.68 µM,> 100 µM
COc1cc(C(O)CCBr)c(OC)cc1C (configuration not stated),,> 100 µM,,> 57 µM,,> 100 µM,,> 100 µM,,> 100 µM,,> 100 µM,,> 38 µM,,> 100 µM,,> 100 µM,,> 46.8 µM
C=C(C)[C@@H]1CC[C@]2(C)CC[C@]3(C)[C@H](CC[C@@H]4[C@@]5(C)CC[C@H](O)C(C)(C)[C@@H]5CC[C@]43C)[C@@H]12,,> 100 µM,,> 100 µM,,28.7 µM,,> 100 µM,,> 100 µM,,> 72.3 µM,,> 100 µM,,> 70.3 µM,,> 100 µM,,> 64.2 µM
Oc1c(-c2nnc(-c3ccccc3Cl)o2)sc2nnc(-c3ccccc3)c(-c3ccccc3)c12,3.1 µM,32.2 µM,4.4 µM,> 100 µM,24.6 µM,> 100 µM,5.39 µM,83.7 µM,0.813 µM,> 100 µM,4.07 µM,25.3 µM,5.99 µM,19.8 µM,3.88 µM,> 100 µM,7.48 µM,> 100 µM,3.72 µM,> 100 µM
CN(Cc1ccccc1)C(=NC#N)N(Cc1ccccc1)Cc1ccccc1,,> 100 µM,,36.2 µM,,95.9 µM,,> 100 µM,,71 µM,,> 100 µM,,33.3 µM,,> 100 µM,,94.7 µM,,> 100 µM
O=C1C(Cl)=C(Nc2cccc(Cl)c2)C(=O)N1Cc1ccc(Cl)cc1,6.78 µM,23.7 µM,1.46 µM,18.2 µM,0.778 µM,22.6 µM,3.37 µM,15.4 µM,0.43 µM,13 µM,0.323 µM,9.97 µM,0.66 µM,4.32 µM,0.513 µM,> 100 µM,0.864 µM,15.1 µM,0.833 µM,18.5 µM
Cc1c2ccncc2c(C)c2c1[nH]c1ccc(OC(C)C)cc12,,2.81 µM,,2.81 µM,,2.76 µM,,3.37 µM,,2.74 µM,,1.89 µM,,3.2 µM,,2.97 µM,,2.87 µM,,2.28 µM
CC(=O)NC1C(OC[C@@H](CC(=O)N[C@@H](CC(=O)O)CC(=O)N[C@H](CC(=O)N[C@@H](CCCN)CC(=O)N[C@@H](CCCN)CC(=O)N[C@H](CC(N)=O)C(C)C)C(C)C)NC(=O)C[C@@H](N)C(C)C)OC(CO)C(O)C1O (some centres not stated),> 100 µM,> 100 µM,> 100 µM,> 100 µM,> 100 µM,> 100 µM,> 100 µM,> 100 µM,> 100 µM,> 100 µM,> 100 µM,> 100 µM,> 100 µM,> 100 µM,> 100 µM,> 100 µM,> 100 µM,> 100 µM,> 100 µM,> 100 µM
CCNC(=O)C1CCCN1C(=O)C(CCCN=C(N)N)NC(=O)C(CC(C)C)NC(=O)C(CC(C)C)NC(=O)C(Cc1ccc(O)cc1)NC(=O)C(CO)NC(=O)C(Cc1c[nH]c2ccccc12)NC(=O)C(Cc1cnc[nH]1)NC(=O)C1CCC(=O)N1 (configuration not stated) ([pGlu]HWSYLLRP-NHEt; configuration not given here),> 100 µM,> 100 µM,> 100 µM,> 100 µM,> 100 µM,> 100 µM,> 100 µM,> 100 µM,> 100 µM,> 100 µM,> 100 µM,> 100 µM,> 100 µM,> 100 µM,> 100 µM,> 100 µM,> 100 µM,> 100 µM,> 100 µM,> 100 µM
